The supplement of paper PMC10878532, “Sperm Toolbox—A selection of small molecules to study human spermatozoa” (PLOS ONE, 2024)

Columns and labels:
[1] = system: HepG2; test: HepG2 toxicity (resazurin), effect normalised to DMSO (DMSO = 0); higher = more features changed / larger toxic effect; conditions: incubation time: 70h incubation
[2] = system: HeLa; test: HeLa toxicity: nuclei-count effect normalised to DMSO (DMSO = 0); higher = more features changed / larger toxic effect; conditions: incubation time: 24h incubation
[3] = system: HeLa; test: Cell Painting percent induction (share of features beyond 2 z-scores vs DMSO); higher = more features changed / larger toxic effect; extreme values may be limits of the assay; conditions: incubation time: 24h incubation
[4] = system: human spermatozoa; test: total motile sperm, percent change vs DMSO (non-capacitating); higher = more of the measured sperm population than DMSO, for viability, fewer PI-positive (dead) cells than DMSO
[5] = system: human spermatozoa; test: viability fold change, 1 - (PI-positive fraction / DMSO median); higher = more of the measured sperm population than DMSO, for viability, fewer PI-positive (dead) cells than DMSO; conditions: incubation time: 3h, non-capacitating
[6] = system: human spermatozoa; test: progressively motile sperm, percent change vs DMSO (capacitating); higher = more of the measured sperm population than DMSO, for viability, fewer PI-positive (dead) cells than DMSO; conditions: incubation time: 30min incubation
[7] = system: human spermatozoa; test: hyperactivated motile sperm, percent change vs DMSO (capacitating); higher = more of the measured sperm population than DMSO, for viability, fewer PI-positive (dead) cells than DMSO; conditions: incubation time: 30min incubation
[8] = system: human spermatozoa; test: change in acrosome-reacted (PNA+) sperm vs DMSO, no agonist (capacitating); higher = more of the measured sperm population than DMSO, for viability, fewer PI-positive (dead) cells than DMSO; conditions: incubation time: 3h
[9] = system: human spermatozoa; test: acrosome-reacted (PNA+) sperm after agonist cocktail, percent change vs DMSO (capacitating); higher = more of the measured sperm population than DMSO, for viability, fewer PI-positive (dead) cells than DMSO; conditions: incubation time: 3h, capacitating + agonist cocktail 1h
[10] = system: human spermatozoa; test: progressively motile sperm, percent change vs DMSO (non-capacitating); higher = more of the measured sperm population than DMSO, for viability, fewer PI-positive (dead) cells than DMSO; extreme values may be limits of the assay
[11] = incubation time: 10min incubation, 9.99 µM
[12] = incubation time: 10min incubation, 29.9 µM
[13] = incubation time: 3h incubation, 9.99 µM
[14] = incubation time: 3h incubation, 29.9 µM
[15] = incubation time: 6h incubation, 9.99 µM
[16] = incubation time: 6h incubation, 29.9 µM
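Throughout, for progressively motile sperm, percent change vs DMSO (non-capacitating): pooled live human sperm from at least 3 donors, tracked by automated microscopy in 0.5 s time-lapse movies, compounds at 10 and 30 µM, versus median of 16 DMSO wells per plate.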
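Throughout, for total motile sperm, percent change vs DMSO (non-capacitating): sperm pooled from at least 3 donors, tracked in 0.5 s time-lapse movies by automated microscopy after 10 min, 3 h or 6 h with compound at 10 or 30 µM.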

Compound | HepG2 toxicity ([1]; 10 µM) [%] | HepG2 toxicity ([1]; 30 µM) [%] | HeLa toxicity: nuclei-count effect normalised ([2]; 9.99 µM) [%] | HeLa toxicity: nuclei-count effect normalised ([2]; 29.9 µM) [%] | Cell Painting percent induction ([3]; 9.99 µM) [%] | Cell Painting percent induction ([3]; 29.9 µM) [%] | total motile sperm [4, 11] [%] | total motile sperm [4, 12] [%] | total motile sperm [4, 13] [%] | total motile sperm [4, 14] [%] | total motile sperm [4, 15] [%] | total motile sperm [4, 16] [%] | viability fold change ([5]; 9.99 µM) | viability fold change ([5]; 29.9 µM) | progressively motile sperm ([6]; 9.99 µM) [%] | progressively motile sperm ([6]; 29.9 µM) [%] | hyperactivated motile sperm ([7]; 9.99 µM) [%] | hyperactivated motile sperm ([7]; 29.9 µM) [%] | change in acrosome-reacted ([8]; 9.99 µM) [%] | change in acrosome-reacted ([8]; 29.9 µM) [%] | acrosome-reacted ([9]; 9.99 µM) [%] | acrosome-reacted ([9]; 29.9 µM) [%] | progressively motile sperm [10, 11] [%] | progressively motile sperm [10, 12] [%] | progressively motile sperm [10, 13] [%] | progressively motile sperm [10, 14] [%] | progressively motile sperm [10, 15] [%] | progressively motile sperm [10, 16] [%]
CCc1c(C)nc(SCC(=O)Nc2nc(-c3ccc(OC)cc3)cs2)[nH]c1=O [T16Ainh-A01] | -6.4 | -1.86 | 6.48 | -5.14 | 0 | 0.108 | 2.04 | 2.24 | -4.04 | 0.707 | -7.94 | -0.932 | -0.653 | -0.578 | 2.99 | 14.4 | -2.36 | -0.263 | 0.555 | 1.02 | 8.11 | 6.61 | 5.37 | 6.45 | 1.94 | 14.7 | 4.81 | 19.4
CNC(=O)c1ccccc1Nc1nc(Nc2ccc(N3CCOCC3)cc2OC)ncc1Cl [TAE226] | 92.5 | 99.8 | 45.5 | 83.4 | 1.84 | 21.1 | 0.613 | 1.31 | -18.9 | -22.2 | -16.2 | -14.9 | -0.257 | 0.581 | -5.22 | -5.06 | 137 | 34.1 | 1.37 | 1.97 | 10.7 | 31.6 | 30.1 | 34.5 | 9.37 | 3.96 | 25.7 | 23.8
CC(C)(O)c1ccn2c(-c3ccc(F)c(-c4ccc(F)cc4C#N)c3)cnc2c1F [TP 003] | 3.92 | 16.1 | 15.4 | 27.2 | 0.324 | 2.31 | 1.87 | -0.967 | -7.62 | -8.89 | -7.79 | -10.8 | -1.77 | -1.42 | 12.3 | 2.2 | 59.6 | -58 | 1.9 | 2.84 | 100 | 116 | 41.3 | 34.6 | 73.6 | 57.9 | 96 | 62.3
C=CC[C@@H]1/C=C(\C)C[C@H](C)C[C@H](OC)[C@H]2O[C@@](O)(C(=O)C(=O)N3CCCC[C@H]3C(=O)O[C@H](/C(C)=C/[C@@H]3CC[C@@H](O)[C@H](OC)C3)[C@H](C)[C@@H](O)CC1=O)[C@H](C)C[C@@H]2OC [Tacrolimus] | -3.53 | 10.6 | -1.94 | 18.1 | 0 | 0.072 | 3.53 | 3.6 | -6.77 | -2.1 | -8.35 | -8.9 | -1.97 | -2.04 | 0.476 | -0.37 | -13.3 | -55.8 | 0.533 | 0.376 | -13.9 | -24 | 5.82 | 0.659 | -17.7 | -17.9 | -13.1 | -20.1
COc1cc(C)c2c(Oc3cccc(C(F)(F)F)c3)c(OC)cc(NC(C)CCCN)c2n1 (stereo not drawn) [Tafenoquine] | 103 | 103 | 97.2 | 96.3 | 28.9 | 18 | -17.5 | -74.6 | -71.2 | -90.7 | -79.5 | -92 | -1.97 | -2.48 | -71.9 | -99.9 | -85.5 | -85.1 | 46.7 | 75 | 86.1 | 161 | -20.8 | -94.3 | -85.3 | -100 | -93.7 | -100
COc1cn(-c2ccc(-n3cccn3)cc2F)nc(-c2ccnn2-c2ccccc2)c1=O [Tak-063] | -4.05 | 8.05 | 6.28 | 2.94 | 1.19 | 3.31 | -3.81 | -3.32 | -11 | -14.9 | -15.5 | -20.7 | -1.78 | -1.87 | 4.06 | 10.1 | 321 | 303 | 0.708 | 0.393 | 114 | 117 | 26.4 | 27.7 | 64.8 | 48.7 | 74.2 | 44
